From ChEMBL document CHEMBL2074144, “Pharmacokinetics of erythromycin in rabbit corneas after single-dose infusion: role of P-glycoprotein as a barrier to in vivo ocular drug absorption” (J Pharmacol Exp Ther, 2004)

Target: ATP-dependent translocase ABCB1 (Homo sapiens, UniProt P08183)
Assay: TP_TRANSPORTER: transepithelial transport in MDR1-expressing MDCK cells
Format: functional, cell-based
Settings: dog

Sequence of ATP-dependent translocase ABCB1 (P08183 whole entry): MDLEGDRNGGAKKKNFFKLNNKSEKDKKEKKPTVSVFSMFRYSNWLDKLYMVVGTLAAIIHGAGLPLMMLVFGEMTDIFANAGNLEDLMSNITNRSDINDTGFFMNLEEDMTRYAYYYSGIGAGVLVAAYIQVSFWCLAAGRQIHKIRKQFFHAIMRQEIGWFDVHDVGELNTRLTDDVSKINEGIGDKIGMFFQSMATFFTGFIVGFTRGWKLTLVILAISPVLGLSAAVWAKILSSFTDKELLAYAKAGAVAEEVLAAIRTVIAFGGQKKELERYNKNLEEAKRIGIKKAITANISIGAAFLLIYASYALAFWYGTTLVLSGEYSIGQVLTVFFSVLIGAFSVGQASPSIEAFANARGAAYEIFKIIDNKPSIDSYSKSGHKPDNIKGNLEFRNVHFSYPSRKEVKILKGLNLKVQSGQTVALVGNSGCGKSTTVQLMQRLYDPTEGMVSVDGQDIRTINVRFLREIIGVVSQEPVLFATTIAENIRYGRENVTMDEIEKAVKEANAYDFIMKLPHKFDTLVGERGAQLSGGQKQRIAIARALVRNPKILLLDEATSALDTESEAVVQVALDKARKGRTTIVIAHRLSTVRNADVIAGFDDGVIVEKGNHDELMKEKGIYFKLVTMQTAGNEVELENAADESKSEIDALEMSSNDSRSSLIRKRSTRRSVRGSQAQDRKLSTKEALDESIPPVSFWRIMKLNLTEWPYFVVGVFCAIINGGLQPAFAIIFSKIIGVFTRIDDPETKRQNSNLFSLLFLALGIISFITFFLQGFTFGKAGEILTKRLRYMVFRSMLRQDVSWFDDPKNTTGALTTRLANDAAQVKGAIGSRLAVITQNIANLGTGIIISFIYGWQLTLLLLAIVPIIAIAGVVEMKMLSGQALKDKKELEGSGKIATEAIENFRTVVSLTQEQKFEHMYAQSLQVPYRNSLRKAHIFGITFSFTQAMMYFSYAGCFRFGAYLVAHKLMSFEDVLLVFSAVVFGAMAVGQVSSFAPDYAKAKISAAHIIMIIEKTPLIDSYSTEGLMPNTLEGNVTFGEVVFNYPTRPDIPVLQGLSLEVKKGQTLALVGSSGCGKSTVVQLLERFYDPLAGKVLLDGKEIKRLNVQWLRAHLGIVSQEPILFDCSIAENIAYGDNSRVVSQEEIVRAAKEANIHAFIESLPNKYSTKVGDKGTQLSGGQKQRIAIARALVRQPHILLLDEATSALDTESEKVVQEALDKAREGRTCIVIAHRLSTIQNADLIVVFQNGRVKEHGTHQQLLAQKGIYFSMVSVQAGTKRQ

Activity: substrate [+]
Compound: CC[C@H]1OC(=O)[C@H](C)[C@@H](O[C@H]2C[C@@](C)(OC)[C@@H](O)[C@H](C)O2)[C@H](C)[C@@H](O[C@@H]2O[C@H](C)C[C@H](N(C)C)[C@H]2O)[C@](C)(OC)C[C@@H](C)C(=O)[C@H](C)[C@@H](O)[C@]1(C)O [CLARITHROMYCIN]
